Read-outs that look alike come from different tables or passages of the source. Each block holds one molecule with its values, some of them ahead of it.
Experiments:
[1] = tested on: oral ulcer after chemotherapy
Description: 35 cases of acute lymphocytic leukemia and 13 cases of acute nonlymphocytic leukemia (6 M2 cases, 3 M3 cases, 2 M4 cases and 2 M5 cases) were also included.
Treatment: Regular chemotherapies, such as CODPL, HDMTX, DA were adopted. Other chemotherapies regimens were not listed. Tetrahydrofolate folic calcium was used to against the toxicity of HDMTX (hige-dose MTX). Hydration and alkalinizing of urine were performed in all patients by Dobll's solution. 5% NaHCO3 and 3% peroxide hydrogen were used to rinse the mouth alternatively.

[2] = tested on: blood glutathione reductase activity coefficient (BGRAC)
[3] = tested on: oral ulcer after bone marrow transplantation; conditions: 28 leukemia cases with bone marrow transplantation; 150 mg LRM injected
Description: 28 cases of leukemia with bone marrow transplantation were recruited. 150 mg LRM was injected for prevention of catarrh.

Male wistar Rats = conditions: medium and high LRM injected
Description: 60 Wistar rats weighing 64.5±4.6 g were used in the experiment. […] The rats were weighed every 6 days. […] The blood glutathione reductase activity coefficient (BGRAC) was measured.

[4] = for urinary riboflavin excretion: i.m., riboflavin-free diet
[5] = not given; remark: listed apart in the source
[6] = day 15, medium dosage (5.01 g for 90 days per rat as printed; riboflavin group same dosage)
[7] = day 30, medium dosage (riboflavin group same dosage)
[8] = day 60, medium dosage (riboflavin group same dosage)
[9] = day 90, medium dosage (riboflavin group same dosage)

urinary riboflavin excretion ([4]; day 15, high dosage (double of medium)): 217.9 ± 60.2 μg per rat per day | urinary riboflavin excretion ([4]; day 15, low dosage (half of medium)): 5.6 ± 1.3 μg per rat per day | urinary riboflavin excretion [4, 6]: 34.8 ± 12.2 μg per rat per day | urinary riboflavin excretion ([4]; day 30, high dosage (double of medium)): 9.8 ± 3.5 μg per rat per day | urinary riboflavin excretion ([4]; day 30, low dosage (half of medium)): 4.1 ± 0.8 μg per rat per day | urinary riboflavin excretion [4, 7]: 5.0 ± 1.2 μg per rat per day | urinary riboflavin excretion ([4]; day 60, high dosage (double of medium)): 9.9 ± 2.0 μg per rat per day | urinary riboflavin excretion ([4]; day 60, low dosage (half of medium)): 5.4 ± 1.3 μg per rat per day | urinary riboflavin excretion [4, 8]: 7.8 ± 1.3 μg per rat per day | urinary riboflavin excretion ([4]; day 90, high dosage (double of medium)): 5.9 ± 1.2 μg per rat per day | urinary riboflavin excretion ([4]; day 90, low dosage (half of medium)): 5.1 ± 0.9 μg per rat per day | urinary riboflavin excretion [4, 9]: 4.6 ± 1.1 μg per rat per day | riboflavin content in plasma, course ([5]; high dosage LRM group (FIG. 4)): first elevated and then declined | content of riboflavin in plasma, course ([5]; riboflavin group, low and medium dosage LRM groups (FIG. 4)): decline
SMILES: CCCCCCCCCCCC(=O)OC[C@@H](O)[C@@H](O)[C@@H](O)Cn1c2nc(=O)[nH]c(=O)c-2nc2cc(C)c(C)cc21 [LRM, 5′-lauric acid monoester of riboflavin]
Occurrence (%) of oral ulcer ([1]; ALL, LRM treated before chemotherapy (150 mg i.m.)): 0% | Ulcer observed (times) ([1]; ALL, LRM treated before chemotherapy (150 mg i.m.), 18 chemotherapies): 0 times | Occurrence (%) of oral ulcer ([1]; ALL, LRM treated in recent 3 months): 7.1% | Ulcer observed (times) ([1]; ALL, LRM treated in recent 3 months, 42 chemotherapies): 3 times | Occurrence (%) of oral ulcer ([1]; ANLL, LRM treated before chemotherapy (150 mg i.m.)): 0% | Ulcer observed (times) ([1]; ANLL, LRM treated before chemotherapy (150 mg i.m.), 8 chemotherapies): 0 times | Occurrence (%) of oral ulcer ([1]; ANLL, LRM treated in 3 months): 12.5% | Ulcer observed (times) ([1]; ANLL, LRM treated in 3 months, 8 chemotherapies): 1 times | prevention of oral ulcer after chemotherapy ([1]; LRM treatment prior to chemotherapy): could effectively prevent the occurrence of oral ulcer after chemotherapy | incidence of oral ulcer ([1]; within 3 months after chemotherapy): could effectively decrease the incidence of oral ulcer | BGRAC, course and order of groups ([2]; low, medium and high dosage LRM groups (FIG. 3)): elevated, in the order as follows the low dosage LRM group>the medium dosage LRM group>the high dosage LRM group | cases that suffered oral ulcer [3]: 4 cases | share of cases that suffered oral ulcer [3]: 14.3% | food-intake (low dosage LRM group, after 30 days): decreased | weight gain (medium and high dosage LRM groups): gained weight significantly | gain of body weight (medium dosage LRM group, at the end of the experiment (FIG. 2)): lower than that of the high dosage LRM group | food intake (medium dosage LRM group, in the last few days): decreased and was lower than that of the high dosage LRM group | food intake (the three LRM groups (FIG. 1)): higher than the riboflavin group and the riboflavin deficiency group | release of free riboflavin in the body (Male wistar Rats): could slowly release free riboflavin and meet the demand of the body | riboflavin discharged in urine compared with riboflavin deficiency group ([4]; after 15 days, riboflavin group, low and medium dosage LRM groups): higher than that in the riboflavin deficiency group | urinary riboflavin excretion, course over time ([4]; high dosage LRM group): markedly increased at the 15th day and then rapidly decreased after the 30 days

urinary riboflavin excretion [4, 6]: 4.0 ± 1.4 μg per rat per day | urinary riboflavin excretion [4, 7]: 7.8 ± 1.6 μg per rat per day | urinary riboflavin excretion [4, 8]: 4.5 ± 0.9 μg per rat per day | urinary riboflavin excretion [4, 9]: 4.2 ± 0.9 μg per rat per day
SMILES: Cc1cc2nc3c(=O)[nH]c(=O)nc-3n(C[C@H](O)[C@H](O)[C@H](O)CO)c2cc1C [Riboflavin, riboflavin, reference compound]
BGRAC, course and comparison ([2]; riboflavin group, during the first 30 days (FIG. 3)): gradually increased and significantly higher than that in the LRM groups and lower than that in the riboflavin deficiency group | food intake (riboflavin group (FIG. 1)): did not drop until 25 days later and still more than that in the riboflavin deficiency group

From US20060293335A1 (priority 2002, published 2006)
